Reference: PubChem BioAssay AID248 (DTP/NCI, 2004)
“And” between values parts separate entries of the source, which are not always exact repeats. Equal entries are not always repeated. Toxic doses and inconclusive results are not listed. No stated cut-off is given here; in the data, active means T/C of 150% or more; inactive means T/C below 125%.

Tested on: L1210 leukemia ip in BDF1 mice, survival T/C
Test: NCI In Vivo Anticancer Drug Screen. Data for tumor model L1210 Leukemia (intraperitoneal) in B6D2F1 (BDF1) mice
Conditions: endpoint: mean survival time, higher = longer survival
Procedure, shortened: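 Tumor was transplanted into mice, which were then dosed with test compound or vehicle alone. Survival was recorded for each group, and the treated figure was expressed relative to the control figure.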

[1] = dose: 100.0 mg/kg/injection, schedule: Q01DX001 (ip), vehicle: saline
[2] = dose: 100.0 mg/kg/injection, schedule: Q04DX003 (ip), vehicle: Klucel (hydroxypropylcellulose) (HPC)
[3] = dose: 200.0 mg/kg/injection, schedule: Q01DX001 (ip), vehicle: saline
[4] = dose: 200.0 mg/kg/injection, schedule: Q04DX003 (ip), vehicle: Klucel (hydroxypropylcellulose) (HPC)
[5] = dose: 400.0 mg/kg/injection, schedule: Q01DX001 (ip), vehicle: saline
[6] = dose: 400.0 mg/kg/injection, schedule: Q04DX003 (ip), vehicle: Klucel (hydroxypropylcellulose) (HPC)
[7] = dose: 100.0 mg/kg/injection, schedule: Q04DX003 (ip), vehicle: saline with Tween-80
[8] = dose: 200.0 mg/kg/injection, schedule: Q04DX003 (ip), vehicle: saline with Tween-80
[9] = dose: 400.0 mg/kg/injection, schedule: Q04DX003 (ip), vehicle: saline with Tween-80

Measured: T/C

S=C=NCc1cccc2ccccc12
inactive: dose: 2.5 mg/kg/injection, schedule: Q01DX009 (ip), vehicle: carboxymethylcellulose (CMC) 90 % of control | dose: 5.0 mg/kg/injection, schedule: Q01DX009 (ip), vehicle: carboxymethylcellulose (CMC) 94 % of control | dose: 5.0 mg/kg/injection, schedule: Q04DX003 (ip), vehicle: carboxymethylcellulose (CMC) 101 % of control | dose: 10.0 mg/kg/injection, schedule: Q01DX001 (ip), vehicle: carboxymethylcellulose (CMC) 93 % of control | dose: 10.0 mg/kg/injection, schedule: Q01DX009 (ip), vehicle: carboxymethylcellulose (CMC) 105 % of control | dose: 10.0 mg/kg/injection, schedule: Q04DX003 (ip), vehicle: carboxymethylcellulose (CMC) 97 % of control | dose: 20.0 mg/kg/injection, schedule: Q01DX001 (ip), vehicle: carboxymethylcellulose (CMC) 87 % of control | dose: 20.0 mg/kg/injection, schedule: Q04DX003 (ip), vehicle: carboxymethylcellulose (CMC) 97 % of control

CC(C)(C)[O][Pb]([c]1ccccc1)([c]1ccccc1)[c]1ccccc1
inactive: dose: 1.56 mg/kg/injection, schedule: Q01DX009 (ip), vehicle: saline with Tween-80 91 % of control

CCCCCCCCCCCCCCCC(=O)Nc1ccc(O)cc1
inactive: [1] 110 % of control | [2] 97 % of control | [3] 110 % of control | [4] 102 % of control | [5] 108 % of control | [6] 95 % of control

OCC1(c2ccccc2)OC1(c1ccccc1)c1ccccc1 (stereo unspecified)
inactive: dose: 6.25 mg/kg/injection, schedule: Q04DX002 (ip), vehicle: Klucel (hydroxypropylcellulose) (HPC) 86 % of control | dose: 12.5 mg/kg/injection, schedule: Q04DX002 (ip), vehicle: Klucel (hydroxypropylcellulose) (HPC) 101 % of control | dose: 25.0 mg/kg/injection, schedule: Q04DX002 (ip), vehicle: Klucel (hydroxypropylcellulose) (HPC) 99 % of control and 101 % of control

COC(=O)CSC(=S)N(C)C
inactive: [7] 91 % of control | [8] 91 % of control | [9] 94 % of control

CC(CC(C)O)=NCCN=C(C)CC(C)O.[Ni] (stereo unspecified)
inactive: dose: 6.25 mg/kg/injection, schedule: Q01DX009 (ip), vehicle: saline with Tween-80 108 % of control | dose: 12.5 mg/kg/injection, schedule: Q01DX009 (ip), vehicle: saline with Tween-80 89 % of control

c1ccc2c(C(CCN3CCCCC3)CNC3=NCCN3)cccc2c1 (stereo unspecified)
inactive: dose: 5.0 mg/kg/injection, schedule: Q04DX003 (ip), vehicle: saline with Tween-80 96 % of control | dose: 10.0 mg/kg/injection, schedule: Q04DX003 (ip), vehicle: saline with Tween-80 105 % of control | dose: 20.0 mg/kg/injection, schedule: Q04DX003 (ip), vehicle: saline with Tween-80 98 % of control

CC1(CO)COCOC1
inactive: dose: 50.0 mg/kg/injection, schedule: Q01DX009 (ip), vehicle: acetone 104 % of control | dose: 100.0 mg/kg/injection, schedule: Q01DX009 (ip), vehicle: acetone 108 % of control | dose: 100.0 mg/kg/injection, schedule: Q04DX003 (ip), vehicle: acetone 95 % of control | dose: 200.0 mg/kg/injection, schedule: Q01DX009 (ip), vehicle: acetone 104 % of control | dose: 200.0 mg/kg/injection, schedule: Q04DX003 (ip), vehicle: acetone 105 % of control | dose: 400.0 mg/kg/injection, schedule: Q04DX003 (ip), vehicle: acetone 97 % of control

Cc1ccc(N(C)C(=O)c2ccccc2S)cc1
inactive: [1] 105 % of control | [3] 105 % of control | [5] 109 % of control

CCOC(=O)c1nc(SC)n(Cc2ccccc2)c1C(=O)OCC
inactive: dose: 25.0 mg/kg/injection, schedule: Q04DX002 (ip), vehicle: saline with Tween-80 94 % of control and 103 % of control | dose: 50.0 mg/kg/injection, schedule: Q04DX002 (ip), vehicle: saline with Tween-80 106 % of control and 91 % of control | dose: 100.0 mg/kg/injection, schedule: Q01DX001 (ip), vehicle: saline with Tween-80 95 % of control and 98 % of control | [7] 99 % of control | dose: 200.0 mg/kg/injection, schedule: Q01DX001 (ip), vehicle: saline with Tween-80 102 % of control and 91 % of control | [8] 100 % of control | dose: 400.0 mg/kg/injection, schedule: Q01DX001 (ip), vehicle: saline with Tween-80 95 % of control and 91 % of control | dose: 400.0 mg/kg/injection, schedule: Q04DX002 (ip), vehicle: saline with Tween-80 94 % of control and 101 % of control | [9] 99 % of control

CC1(C)C(=O)Nc2ccccc2N1C(=O)CN1CCCC1
inactive: dose: 9.37 mg/kg/injection, schedule: Q01DX009 (ip), vehicle: acetone 97 % of control | dose: 18.75 mg/kg/injection, schedule: Q01DX009 (ip), vehicle: acetone 88 % of control | dose: 37.5 mg/kg/injection, schedule: Q01DX009 (ip), vehicle: acetone 98 % of control | dose: 37.5 mg/kg/injection, schedule: Q04DX003 (ip), vehicle: saline 100 % of control | dose: 75.0 mg/kg/injection, schedule: Q01DX001 (ip), vehicle: saline 102 % of control | dose: 75.0 mg/kg/injection, schedule: Q04DX003 (ip), vehicle: saline 91 % of control | dose: 150.0 mg/kg/injection, schedule: Q01DX001 (ip), vehicle: saline 109 % of control

O=C(O)C1C2CCC(C2)C1C(=O)O (stereo unspecified)
inactive: [7] 90 % of control | dose: 100.0 mg/kg/injection, schedule: Q04DX003 (ip), vehicle: saline 100 % of control | [8] 98 % of control | dose: 200.0 mg/kg/injection, schedule: Q04DX003 (ip), vehicle: saline 100 % of control | [9] 102 % of control | dose: 400.0 mg/kg/injection, schedule: Q04DX003 (ip), vehicle: saline 105 % of control

CC(=O)Oc1c2c(c(CC=C(C)C)c3c1C(=O)C1=CC4CC5C(C)(C)OC(C/C=C(/C)C(=O)O)(C4=O)C15O3)OC(C)(CCC=C(C)C)C=C2 (stereo unspecified)
inactive: dose: 50.0 mg/kg/injection, schedule: Q01DX009 (ip), vehicle: Klucel (hydroxypropylcellulose) (HPC) 109 % of control | dose: 50.0 mg/kg/injection, schedule: Q04DX003 (ip), vehicle: Klucel (hydroxypropylcellulose) (HPC) 103 % of control | dose: 100.0 mg/kg/injection, schedule: Q01DX001 (ip), vehicle: Klucel (hydroxypropylcellulose) (HPC) 106 % of control | dose: 100.0 mg/kg/injection, schedule: Q01DX009 (ip), vehicle: Klucel (hydroxypropylcellulose) (HPC) 91 % of control | [2] 97 % of control | dose: 200.0 mg/kg/injection, schedule: Q01DX001 (ip), vehicle: Klucel (hydroxypropylcellulose) (HPC) 114 % of control | [4] 105 % of control | dose: 400.0 mg/kg/injection, schedule: Q01DX001 (ip), vehicle: Klucel (hydroxypropylcellulose) (HPC) 110 % of control

CC(C)CC(N)C(=O)NCCCCCCNCCCCCCNC(=O)C(N)CC(C)C (stereo unspecified)
inactive: dose: 50.0 mg/kg/injection, schedule: Q01DX001 (ip), vehicle: saline 103 % of control | [1] 105 % of control | [3] 102 % of control

Cc1ccc(NC(=O)Nc2cc([N+](=O)[O-])ccc2C)cc1C
inactive: [2] 88 % of control | [4] 88 % of control | [6] 96 % of control

NC(CS)C(=O)O (stereo unspecified)
inactive: [1] 105 % of control | [3] 92 % of control | dose: 250.0 mg/kg/injection, schedule: Q01DX Z (ip), vehicle: other 91 % of control | dose: 250.0 mg/kg/injection, schedule: Q01DX Z (ip), vehicle: saline 102 % of control | [5] 97 % of control | dose: 500.0 mg/kg/injection, schedule: Q01DX Z (ip), vehicle: saline 94 % of control | dose: 1000.0 mg/kg/injection, schedule: Q01DX Z (ip), vehicle: saline 112 % of control

Cc1cc(O)ccc1C1=NCC(C)(C)S1
inactive: dose: 100.0 mg/kg/injection, schedule: Q04DX002 (ip), vehicle: saline 93 % of control | dose: 200.0 mg/kg/injection, schedule: Q04DX002 (ip), vehicle: saline 100 % of control | dose: 400.0 mg/kg/injection, schedule: Q04DX002 (ip), vehicle: saline 103 % of control
